Source: paper PMC11571207, “Stereorandomized Oncocins with Preserved Ribosome Binding and Antibacterial Activity” (Journal of Medicinal Chemistry, 2024)
In brackets after ≈: the same amount, converted by molar mass. Where two headings read alike, the source gives them in different places. Non-standard residues stand in square brackets, D forms with d. Residues, ends and D or L forms follow the SMILES beside them. Nleu = CC(C)CNCC(=O)O; Nlys = NCCCCNCC(=O)O

Assays:
human red blood cells = details: red cells of human, 6 h
K. pneumoniae NCTC 418 = assay: microbe, parasite or virus in culture
Method in brief: (§1)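 Read-out was visible growth after MTT addition, the MIC being the lowest inhibitory peptide concentration. Bacteria grown to log phase in LB were exposed in MH medium to peptide from 64 μg/mL in twofold dilutions for 15-18h at 37°C.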

P. aeruginosa PAO1 = assay: microbe, parasite or virus in culture; details: for MIC P. aeruginosa PAO1: supplement CSV
Method in brief: as §1

A. baumannii ATCC19606 = assay: microbe, parasite or virus in culture
Method in brief: as §1

S. aureus COL (MRSA) = assay: microbe, parasite or virus in culture; details: for MIC S. aureus COL (MRSA): supplement CSV
Method in brief: as §1

[1] = test system: P. aeruginosa PA14 4.18 (pmrB); details: for MIC P. aeruginosa PA14 4.18: supplement CSV
K. pneumoniae OXA-48 = assay: microbe, parasite or virus in culture; details: for MIC K. pneumoniae OXA-48: supplement CSV
Procedure: (§2) Minimum inhibitory concentration assay
(§3) Antimicrobial activity was assayed against P. aeruginosa PAO1, K. pneumoniae NCTC418, E. coli W3110, A. baumannii ATCC 19606, methicillin-resistant S. aureus COL (MRSA), and for selected peptides on P. aeruginosa PA14 and the polymyxin-B-resistant derivative PA14 2P4, as well as the clinical isolates ZEM-1A and ZEM9A, K. pneumoniae OXA-48, S. aureus Newman, Enterobacter cloacae and Burkholderia cenocepacia. The minimal inhibitory concentration (MIC) was determined by using broth microdilution method. A colo ny of bacteria was picked and grown in Luria-Bertani (LB) medium overnight at 37°C. For E. coli BW25113 sbmA::kan the medium was supplemented with 25 mg/L of kanamycin. The next day, the culture was then regrown in LB medium to log phase (OD600 = 0.6 to 0.8), which lasted approximately 4 h, and diluted to an OD600 of 0.022 in the desired medium. Stock solutions of 1 mg/mL of the samples were prepared in sterilized milliQ water and diluted to the beginning concentration of 64 μg/mL in 300 μL Mueller Hinton (MH)-medium. The diluted samples were added to first well of 96-well microtiter plate (TPP, untreated, Faust Laborbedarf, AG, Schaffhausen) and diluted serially by ½. Finally, 4 μL of the bacterial suspension was inoculated into the sample solutions (150 μL/well) with a final inoculation of about 5∙10^5 CFU/mL. The plates were then incubated at 37°C for 15-18h. For each assay, sterility (broth only) and growth control (broth with bacterial inoculum, without antibiotics) were checked with two columns in the plate. The next day, 15 μL of 3-(4,5-dimethylthiazol-2-yl)-2,5-diphenyltetrazolium bromide (MTT) was added to each well of the plate, such a way that MIC was defined as the lowest concentration of the peptide that inhibited visible growth of the tested

E. cloacae = assay: microbe, parasite or virus in culture; details: for MIC E. cloacae: supplement CSV
Procedure: as §2, §3

P. aeruginosa ZEM9A = assay: microbe, parasite or virus in culture; details: for MIC P. aeruginosa ZEM9A: supplement CSV
Procedure: as §2, §3

[2] = test system: P. aeruginosa PA14 2P4 (pmrB); assay: microbe, parasite or virus in culture; details: for MIC P. aeruginosa PA14 2P4: supplement CSV
Procedure: as §2, §3

P. aeruginosa ZEM-1A = assay: microbe, parasite or virus in culture; details: for MIC P. aeruginosa ZEM-1A: supplement CSV
Procedure: as §2, §3

P. aeruginosa PA14 = assay: microbe, parasite or virus in culture; details: for MIC P. aeruginosa PA14: supplement CSV
Procedure: as §2, §3

[3] = test system: P. aeruginosa PA14 4.13 (phoQ); details: for MIC P. aeruginosa PA14 4.13: supplement CSV
E. coli W3110 = assay: microbe, parasite or virus in culture; details: for MIC E. coli W3110: supplement CSV
Method in brief: as §1

[4] = polymyxin B resistant strain, 12.5% MHB pH 7.4, 16–20 h at 37 °C
[5] = polymyxin B resistant strain, full MHB pH 7.4, 16–20 h at 37 °C
[6] = supplement CSV, 12.5% MH pH 7.4

CC(C)C[C@H](NC(=O)CN(CC(C)C)C(=O)[C@H](CC(C)C)NC(=O)CN(CCCCN)C(=O)[C@H](CC(C)C)NC(=O)CN(CC(C)C)C(=O)[C@H](CCCCN)NC(=O)CN(CC(C)C)C(=O)[C@H](CC(C)C)NC(=O)CN(CCCCN)C(=O)[C@@H](N)CCCCN)C(N)=O [EB9, reference compound] (H-K[Nlys]L[Nleu]K[Nleu]L[Nlys]L[Nleu]L-NH2; N-terminus assumed)
MHC human red blood cells (human red blood cells): >2000 µg/mL | MIC K. pneumoniae, 12.5% MHB (K. pneumoniae NCTC 418; NCTC 418): >32 / >32 μg/mL | MIC K. pneumoniae, Full MHB (K. pneumoniae NCTC 418; NCTC 418): >32 / >32 μg/mL | MIC K. pneumoniae NCTC418 (K. pneumoniae NCTC 418; NCTC 418, 4 h, pH 7.4): >32 mg/L | MIC P. aeruginosa, 12.5% MHB (P. aeruginosa PAO1; PAO1): 4 mg/L (≈ 3.03 µM) | MIC P. aeruginosa, Full MHB (P. aeruginosa PAO1; PAO1): 32 mg/L (≈ 24.2 µM) | MIC A. baumannii, 12.5% MHB (A. baumannii ATCC19606; ATCC19606): 16 mg/L (≈ 12.1 µM) | MIC A. baumannii, Full MHB (A. baumannii ATCC19606; ATCC19606): > 32 mg/L | MIC S. aureus, 12.5% MHB (S. aureus COL (MRSA); COL): >32 / 32 μg/mL | MIC S. aureus, Full MHB (S. aureus COL (MRSA); COL): >32 / 32 μg/mL

CC(C)C[C@H](NC(=O)[C@H](CC(C)C)NC(=O)[C@H](CC(C)C)NC(=O)[C@@H](CCCCN)NC(=O)[C@H](CC(C)C)NC(=O)[C@H](CC(C)C)NC(=O)[C@@H](CCCCN)NC(=O)[C@H](CC(C)C)NC(=O)[C@H](CC(C)C)NC(=O)[C@@H](CCCCN)NC(=O)[C@H](N)CCCCN)C(N)=O [ln69, reference compound] (H-[dK][dK]LL[dK]LL[dK]LLL-NH2)
MHC human red blood cells (human red blood cells): 1000 µg/mL | MIC P. aeruginosa PA14 4.18 (pmrB), 12.5% MHB [1, 4]: 2 mg/L (≈ 1.51 µM) | MIC P. aeruginosa PA14 4.18 (pmrB), full MHB [1, 5]: 16 mg/L (≈ 12.1 µM) | MIC P. aeruginosa PA14 4.18 ([1]; 12.5% MH pH 7.4): 2 mg/L (≈ 1.51 µM) | MIC P. aeruginosa PA14 4.18 ([1]; full MH pH 7.4): 16 mg/L (≈ 12.1 µM) | MIC K. pneumoniae OXA-48, 12.5% MHB (K. pneumoniae OXA-48; carbapenem-resistant, 12.5% MHB pH 7.4, 16–20 h at 37 °C): 4/4 μg/mL | MIC K. pneumoniae OXA-48, full MHB (K. pneumoniae OXA-48; carbapenem-resistant, full MHB pH 7.4, 16–20 h at 37 °C): 4/4 μg/mL | MIC K. pneumoniae OXA-48 (K. pneumoniae OXA-48; 12.5% MH pH 7.4): 4 mg/L (≈ 3.03 µM) | MIC K. pneumoniae OXA-48 (K. pneumoniae OXA-48; full MH pH 7.4): 4 mg/L (≈ 3.03 µM) | MIC E. cloacae, 12.5% MHB (E. cloacae; 12.5% MHB pH 7.4, 16–20 h at 37 °C): 2 mg/L (≈ 1.51 µM) | MIC E. cloacae, full MHB (E. cloacae; full MHB pH 7.4, 16–20 h at 37 °C): 4 mg/L (≈ 3.03 µM) | MIC E. cloacae (E. cloacae; 12.5% MH pH 7.4): 2 mg/L (≈ 1.51 µM) | MIC E. cloacae (E. cloacae; full MH pH 7.4): 4 mg/L (≈ 3.03 µM) | MIC P. aeruginosa ZEM9A, full MHB (P. aeruginosa ZEM9A; clinical isolate, full MHB pH 7.4, 16–20 h at 37 °C): 4 to 8 mg/L | MIC P. aeruginosa ZEM9A (P. aeruginosa ZEM9A; 12.5% MH pH 7.4): 2 mg/L (≈ 1.51 µM) | MIC P. aeruginosa ZEM9A (P. aeruginosa ZEM9A; full MH pH 7.4): 4 to 8 mg/L | MIC P. aeruginosa PA14 2P4 (pmrB), 12.5% MHB [2, 4]: 4 mg/L (≈ 3.03 µM) | MIC P. aeruginosa PA14 2P4 (pmrB), full MHB [2, 5]: 32 mg/L (≈ 24.2 µM) | MIC P. aeruginosa PA14 2P4 ([2]; 12.5% MH pH 7.4): 4 mg/L (≈ 3.03 µM) | MIC P. aeruginosa PA14 2P4 ([2]; full MH pH 7.4): 32 mg/L (≈ 24.2 µM) | MIC P. aeruginosa ZEM-1A, 12.5% MHB (P. aeruginosa ZEM-1A; clinical isolate, 12.5% MHB pH 7.4, 16–20 h at 37 °C, cells marked c: single measurement (in duplicates)): 4 mg/L (≈ 3.03 µM) | MIC P. aeruginosa ZEM-1A, full MHB (P. aeruginosa ZEM-1A; clinical isolate, full MHB pH 7.4, 16–20 h at 37 °C, cells marked c: single measurement (in duplicates)): 1 mg/L (≈ 0.757 µM) | MIC P. aeruginosa ZEM-1A (P. aeruginosa ZEM-1A; 12.5% MH pH 7.4): 4 mg/L (≈ 3.03 µM) | MIC P. aeruginosa ZEM-1A (P. aeruginosa ZEM-1A; full MH pH 7.4): 1 mg/L (≈ 0.757 µM) | MIC P. aeruginosa PA14, 12.5% MHB (P. aeruginosa PA14; 12.5% MHB pH 7.4, 16–20 h at 37 °C, two different duplicate MIC determinations): 2/2 μg/mL | MIC P. aeruginosa PA14, full MHB (P. aeruginosa PA14; full MHB pH 7.4, 16–20 h at 37 °C, two different duplicate MIC determinations): 2/2 μg/mL | MIC P. aeruginosa PA14 (P. aeruginosa PA14; 12.5% MH pH 7.4): 2 mg/L (≈ 1.51 µM) | MIC P. aeruginosa PA14 (P. aeruginosa PA14; full MH pH 7.4): 2 mg/L (≈ 1.51 µM) | MIC P. aeruginosa PA14 4.13 (phoQ), 12.5% MHB [3, 4]: 2 mg/L (≈ 1.51 µM) | MIC P. aeruginosa PA14 4.13 (phoQ), full MHB [3, 5]: 4 mg/L (≈ 3.03 µM) | MIC P. aeruginosa PA14 4.13 ([3]; 12.5% MH pH 7.4): 2 mg/L (≈ 1.51 µM) | MIC P. aeruginosa PA14 4.13 ([3]; full MH pH 7.4): 4 mg/L (≈ 3.03 µM) | MIC K. pneumoniae NCTC418 (K. pneumoniae NCTC 418; [6]): 4 mg/L (≈ 3.03 µM) | MIC K. pneumoniae NCTC418 (K. pneumoniae NCTC 418; supplement CSV, full MH pH 7.4): 8 mg/L (≈ 6.05 µM) | MIC P. aeruginosa PAO1 (P. aeruginosa PAO1; 12.5% MH pH 7.4): 2 mg/L (≈ 1.51 µM) | MIC P. aeruginosa PAO1 (P. aeruginosa PAO1; full MH pH 7.4): 4 mg/L (≈ 3.03 µM) | MIC A. baumannii, 12.5% MHB (A. baumannii ATCC19606; A. baumannii ATCC19606, 12.5% Müller–Hinton medium, 16–20 h at 37 °C): 2 mg/L (≈ 1.51 µM) | MIC A. baumannii, Full MHB (A. baumannii ATCC19606; A. baumannii ATCC19606, full Müller–Hinton medium, 16–20 h at 37 °C): 2 to 4 mg/L | MIC A. baumannii ATCC19606 (A. baumannii ATCC19606; [6]): 2 mg/L (≈ 1.51 µM) | MIC E. coli, 12.5% MHB (E. coli W3110; E. coli W3110, 12.5% Müller–Hinton medium, 16–20 h at 37 °C, broth microdilution): 2 mg/L (≈ 1.51 µM) | MIC E. coli, Full MHB (E. coli W3110; E. coli W3110, full Müller–Hinton medium, 16–20 h at 37 °C, broth microdilution): 4 mg/L (≈ 3.03 µM) | MIC E. coli W3110 (E. coli W3110; 12.5% MH pH 7.4): 2 mg/L (≈ 1.51 µM) | MIC E. coli W3110 (E. coli W3110; full MH pH 7.4): 4 mg/L (≈ 3.03 µM) | MIC S. aureus, 12.5% MHB (S. aureus COL (MRSA); S. aureus COL (MRSA), 12.5% Müller–Hinton medium, 16–20 h at 37 °C): 2 µg/mL (≈ 1.51 µM) | MIC S. aureus, Full MHB (S. aureus COL (MRSA); S. aureus COL (MRSA), full Müller–Hinton medium, 16–20 h at 37 °C): 16 µg/mL (≈ 12.1 µM) | MIC S. aureus COL (MRSA) (S. aureus COL (MRSA); 12.5% MH pH 7.4): 2 mg/L (≈ 1.51 µM) | MIC S. aureus COL (MRSA) (S. aureus COL (MRSA); full MH pH 7.4): 16 mg/L (≈ 12.1 µM)
